Several values for one entry are separate records, joined by “and”; a condition that tells them apart may be missing. Equal values may be shown once.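 Five concentrations, 48 hours, 96-well plates. GI50 = concentration required for 50% inhibition of growth. TGI marks complete inhibition of growth.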
Assays:
Experiment in all cases: DTP human tumour cell line panel, 48 h
K-562 leukemia = test system: K-562 leukemia
SN12C renal = test system: SN12C renal
ACHN renal = test system: ACHN renal
MDA-MB-435 = test system: MDA-MB-435
MOLT-4 leukemia = test system: MOLT-4 leukemia
UACC-62 melanoma = test system: UACC-62 melanoma
MDA-MB-231 breast = test system: MDA-MB-231 breast
SK-MEL-2 melanoma = test system: SK-MEL-2 melanoma
BT-549 breast = test system: BT-549 breast
HOP-62 NSCLC = test system: HOP-62 NSCLC

Row | SMILES | GI50 (K-562 leukemia) | TGI (K-562 leukemia) | GI50 (SN12C renal) | TGI (SN12C renal) | GI50 (ACHN renal) | TGI (ACHN renal) | GI50 (MDA-MB-435) | TGI (MDA-MB-435) | GI50 (MOLT-4 leukemia) | TGI (MOLT-4 leukemia) | GI50 (UACC-62 melanoma) | TGI (UACC-62 melanoma) | GI50 (MDA-MB-231 breast) | TGI (MDA-MB-231 breast) | GI50 (SK-MEL-2 melanoma) | TGI (SK-MEL-2 melanoma) | GI50 (BT-549 breast) | TGI (BT-549 breast) | GI50 (HOP-62 NSCLC) | TGI (HOP-62 NSCLC)
1 | O=C(c1ccco1)c1nc2cc(C(F)(F)F)ccc2[n+]([O-])c1C(F)(F)F | 48.9 µM | > 100 µM | 65.1 µM | > 100 µM | 47.1 µM | > 100 µM | 37 µM | > 100 µM | 90.3 µM | > 100 µM | 45.9 µM | > 100 µM | 68.8 µM | > 100 µM | 46 µM | > 100 µM | 63 µM | > 100 µM | 71.7 µM | > 100 µM
2 | O=C1CCSC(=S)N1c1ccc(Br)c(Cl)c1 | – | > 100 µM | – | > 100 µM | – | 38.9 µM | – | 65.7 µM | – | > 100 µM | – | 58.7 µM | – | 70 µM | – | 58.2 µM | – | 41.1 µM | – | > 100 µM
3 | O=C1/C(=C/c2ccc(Cl)c(Cl)c2)CNC/C1=C\c1ccc(Cl)c(Cl)c1 | – | 19.5 µM | – | 12.9 µM | – | 35.6 µM | – | 43.7 µM | – | 28.3 µM | – | 29.1 µM | – | 8.7 µM | – | 49.3 µM | – | 87.2 µM | – | 38.8 µM
4 | COc1ccc(-c2nnc(SCC(=O)Nc3ccc(C(=O)/C=C/c4cc(OC)c(OC)c(OC)c4)cc3)n2-c2ccccc2)cc1OC | 4.92 µM | > 10 µM | > 10 µM | > 10 µM | 5.69 µM | > 10 µM | 1.77 µM | 9.91 µM | 9.46 µM | > 10 µM | 6.4 µM | > 10 µM | 4.84 µM | > 10 µM | > 10 µM | > 10 µM | 1.98 µM | 7.99 µM | 8.52 µM | > 10 µM
5 | CCCC(C)c1c(Cl)nc(Cl)nc1Cl (centres undefined) | – | > 100 µM | – | 48 µM | – | 15.5 µM | – | 21 µM | – | > 100 µM | – | – | – | > 100 µM | – | > 100 µM | – | 5.16 µM | – | 20.6 µM
6 | Nc1nccc2c1ccn2-c1cccc(NC(=O)c2ccc(N3CCOCC3)c(C(F)(F)F)c2)c1 | 0.233 µM | > 39.4 µM | 1.91 µM | > 50 µM | 0.826 µM | 11.5 µM | 0.163 µM | > 50 µM | 1.7 µM | > 22.8 µM | 0.429 µM | 6.12 µM | 0.874 µM | 2.86 µM | 0.584 µM | 2.94 µM | 1.04 µM | 5.5 µM | 1.27 µM | > 25.8 µM
7 | O=C(Cn1c(C(=O)c2ccc(Cl)cc2)nc(-c2ccccc2)c1-c1ccccc1)c1ccc(Cl)cc1 | > 100 µM | > 100 µM | > 100 µM | > 100 µM | > 100 µM | > 100 µM | > 100 µM | > 100 µM | > 100 µM | > 100 µM | > 100 µM | > 100 µM | > 100 µM | > 100 µM | > 100 µM | > 100 µM | > 100 µM | > 100 µM | > 100 µM | > 100 µM
8 | CCCCCCCCNC(C)C(O)c1ccc(SC(C)C)cc1 (centres undefined) | 1.88 µM | 3.8 µM | 1.57 µM | 3.13 µM | 1.87 µM | 3.3 µM | 1.69 µM | 3.21 µM | 2.48 µM | 5.27 µM | 1.53 µM | 2.95 µM | 1.8 µM | 3.31 µM | 2.05 µM | 3.74 µM | 1.82 µM | 3.33 µM | 1.53 µM | 2.87 µM
9 | O=c1c2c(=NCCN3CCCC3)cc3c(=O)n(CCCN4CCOCC4)c(=O)c4ccc(c(O)n1CCCN1CCOCC1)c2c4-3 | < 0.0213 µM | > 70.4 µM | 0.138 µM | 4.54 µM | 0.0909 µM | 1.51 µM | 0.122 µM | 0.264 µM | < 0.0216 µM | 5.71 µM | 0.35 µM | 0.966 µM | 0.197 µM | 0.919 µM | 0.239 µM | 0.874 µM | 0.917 µM | 2.99 µM | 0.0577 µM | 0.832 µM
10 | Cc1ccc(-c2cc(-c3ccc(C)cc3)nc(N3CCN(CCNc4ccnc5cc(Cl)ccc45)CC3)n2)cc1 | 2.4 µM | > 50 µM | 4.71 µM | 14.7 µM | 6.18 µM | 14.5 µM | 1.76 µM | 6.85 µM | 6.25 µM | > 50 µM | 5.54 µM | 12.6 µM | 2.52 µM | 9.19 µM | 7.89 µM | 20.3 µM | 6.06 µM | 17 µM | 1.58 µM | 6.52 µM
11 | CC(=O)Nc1ccc(-c2csc(Nc3cccc(-c4csc(-c5ccccc5)n4)c3)n2)cc1 | 12.6 µM | 48.5 µM | 8.2 µM | 27.6 µM | 8.3 µM | 27.5 µM | 15.2 µM | > 50 µM | > 50 µM | > 50 µM | 4.7 µM | 14.9 µM | 13.5 µM | 37.9 µM | 16.4 µM | > 50 µM | 22.5 µM | > 50 µM | > 50 µM | > 50 µM
12 | COc1ccc(-c2nc(-c3ccccn3)c(-c3ccccn3)n2CC(C)C)cc1OC1CCCC1 | 6.37 µM | > 165 µM | 24.5 µM | > 165 µM | 6.92 µM | > 165 µM | 31.3 µM | > 165 µM | 18 µM | 61.6 µM | – | – | 18.2 µM | 125 µM | 38.4 µM | 80.2 µM | 50 µM | > 165 µM | 15.3 µM | > 165 µM
13 | O=C1/C(=C/c2ccc(Cl)cc2)CCC1CN1CCOCC1 (centres undefined) | – | 8.06 µM | – | 8.9 µM | – | 24.8 µM | – | 14.3 µM | – | 4.21 µM | – | 15.8 µM | – | 11.2 µM | – | 33.8 µM | – | 26 µM | – | 35.1 µM
14 | O=C1C(Br)=C(Br)C(=O)c2ccccc21 | – | > 100 µM | 16.4 µM and 5.09 µM | 30.2 µM and 17.1 µM | 15.2 µM and 5.76 µM | 28.4 µM and 14.2 µM | – | 21.8 µM | 7.01 µM and 1.34 µM | – | – | 31.6 µM and 22.7 µM | – | 11.6 µM | – | 36.2 µM and 29 µM | – | 15.3 µM | – | 37.6 µM and 44.4 µM

From PubChem BioAssay (NCI)
